Laboratory results reported in patent US10039845B2, “Labeled inhibitors of prostate specific membrane antigen (PSMA) biological evaluation, and use of imaging agents” (THE JOHNS HOPKINS UNIVERSITY, priority 2007, dated 2018).

Assays:
LNCaP (PSMA+) tumor = assay: In vivo binding specificity (blocking) study, SPECT-CT; parameters: species or system mice; details: LNCaP tumor bearing animal, PMPA 50 mg/kg (1 mg), images 30-60 min postinjection
Description: SPECT-CT imaging was then performed as described above, with both animals on the scanner gantry.

PSMA = molecular target: T1, PSMA (Homo sapiens, UniProt Q04609); assay: NAALADase assay (NAAG hydrolysis, LNCaP cell extracts); assay type: biochemical
T1 construct: LNCaP cell extracts were prepared by sonication in NAALADase buffer; endogenous in cells; host or cells: LNCaP cell extract (sonicated in 50 mM Tris pH 7.4, 0.5% Triton X-100)
Description: The relative binding affinities of L1-L7 and ReL1-ReL7, were determined using the N-acetylated-α-linked acidic dipeptidase (NAALADase) assay as previously described.
NAAG hydrolysis was performed essentially as described previously (Robinson, M. B.; et al. J Biol Chem 1987, 262, 14498-14506; Lupold, S. E.; et al. Cancer Res 2002, 62, 4029-4033.). In short, LNCaP cell extracts were prepared by sonication in NAALADase buffer [50 mM Tris (pH 7.4) and 0.5% Triton X-100]. Cell lysates were incubated with or without inhibitor at 37° C. for 10 minutes. Following the incubation the radiolabeled substrate N-acetyl-L-aspartyl-L-(3,4-^3H)glutamate (NEN Life Science Products, Boston, Mass.) was added to a final concentration of 30 nM at 37° C. for 10-15 min. The reaction was stopped by the addition of an equal volume of ice-cold 100 mM sodium phosphate and 2 mM EDTA. Products were partitioned by AG 1-X8 formate resin (Bio-Rad Laboratories) anion exchange chromatography, eluted with 1 M sodium formate, and quantified by liquid scintillation counting. […] Assays were performed in triplicate with the entire inhibition study being repeated at least once to confirm affinity and mode of inhibition. Data were collected during linear phase of hydrolysis (i.e., <20% cleavage of total substrate). Enzyme inhibitory constants (Ki values) were generated using the Cheng-Prusoff conversion (Cheng, Y.; Prusoff, W. H. Biochem Pharmcol 1973, 22, 3099-3108).

PSMA+ PC3 PIP cells = assay: In vitro fluorescence microscopy in PC3 PIP and PC3 flu cells; assay type: cell-based, human; details: excitation 494 nm, emission 628 nm, 1 h incubation
Description: Coordination of the bisquinoline moiety of L2 with Re(CO)3 renders this complex fluorescent. Accordingly, microscopy was performed using ReL2 in live cells (FIG. 2). […] The mechanism of internalization of PSMA has been studied previously, however only antibodies and antibody conjugates have been used, rather than small molecules (Rajasekaran, S. A.; et al. Mol Biol Cell 2003, 14, 4835-4845; Moffatt, S.; et al. Gene Ther 2006, 13, 761-772).
Following fresh preparation of ReL2, 10,000 PC3 PIP and PC3 flu cells were seeded separately into each of four wells of a Lab-Tek II 8-well chamber slide (Fisher Scientific). The cells were cultured as described above and were allowed to attach to the bottom of the wells overnight at 37° C. in 5% CO2 in air. […] The cells were then returned to the incubator for one hour to enable binding. Each well was then carefully washed by removing the supernatant followed by addition of warm culture media for 30 seconds. The wash media was then removed and added to the contents of the well chambers. Dako Cytomation mounting medium was then applied and a glass coverslip was added. The mounting medium was allowed to dry at ambient temperature for 20 min prior to storage of the slide at 4° C. overnight. The cells were then viewed using an Olympus BX61 fluorescence microscope equipped with a Semrock DAPI/FITC/Texas Red triple filter cube.

T1 sequence (Q04609 whole entry): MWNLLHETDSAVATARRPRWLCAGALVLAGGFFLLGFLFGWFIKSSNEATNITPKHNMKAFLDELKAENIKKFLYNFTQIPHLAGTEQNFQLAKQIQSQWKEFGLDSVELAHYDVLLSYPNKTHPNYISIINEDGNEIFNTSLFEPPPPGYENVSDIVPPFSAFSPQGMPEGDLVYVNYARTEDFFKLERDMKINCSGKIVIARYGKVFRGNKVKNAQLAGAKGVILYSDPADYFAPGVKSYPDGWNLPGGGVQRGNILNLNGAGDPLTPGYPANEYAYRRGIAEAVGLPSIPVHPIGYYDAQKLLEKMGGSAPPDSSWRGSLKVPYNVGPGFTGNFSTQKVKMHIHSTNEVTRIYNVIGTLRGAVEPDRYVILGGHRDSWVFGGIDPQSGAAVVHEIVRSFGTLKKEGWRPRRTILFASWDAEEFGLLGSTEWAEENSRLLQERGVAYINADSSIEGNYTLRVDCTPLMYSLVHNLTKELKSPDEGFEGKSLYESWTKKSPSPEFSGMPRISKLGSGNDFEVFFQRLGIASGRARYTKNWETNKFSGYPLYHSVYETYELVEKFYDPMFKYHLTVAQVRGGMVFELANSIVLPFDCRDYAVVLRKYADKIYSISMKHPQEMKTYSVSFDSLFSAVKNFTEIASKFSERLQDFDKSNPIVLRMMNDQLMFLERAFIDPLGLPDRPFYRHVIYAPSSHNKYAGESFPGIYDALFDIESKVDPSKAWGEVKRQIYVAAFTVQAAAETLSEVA

Compound | blockade of [^99mTc]L1 binding to tumor and renal cortex (LNCaP (PSMA+) tumor) | Ki (PSMA; LNCaP cell extracts, Cheng-Prusoff conversion, read-out: Ki (PSMA inhibitory activity)) [pM] | fold higher PSMA inhibitory activity than ReL1 (PSMA; relative to ReL1) [fold] | fluorescent signal in live cells (internalization) (PSMA+ PC3 PIP cells)
O=C(O)CCC(CP(=O)(O)O)C(=O)O (stereo not shown) [PMPA, 2-(phosphonomethyl)pentanedioic acid] | capable of eliminating binding of [^99mTc]L1 |  |  | 
O=C(O)CCC(NC(=O)NC(CCCCNC(=O)CCCCCCC(=O)NC(CCCCN(Cc1ccc2ccccc2n1)Cc1ccc2ccccc2n1)C(=O)O)C(=O)O)C(=O)O.[Br-].[C-]#[O+].[C-]#[O+].[C-]#[O+].[Re+] (stereo not drawn) [ReL2, Tricarbonyl(2-[3-(5-{7-[5-(bis-quinolin-2-ylmethyl-amino)-1-carboxy-pentylcarbamoyl]-heptanoylamino}-1-carboxy-pentyl)-ureido]-pentanedioic acid) rhenium bromide] |  | 500 | 20 | weak but observable fluorescent signal from within the PSMA+ PC3 PIP cells
